The subject of test [1] is Resistant Staphylococcus aureus 1775. In words: In vitro antibacterial activity, agar dilution MIC. Type of test: cell-based. The settings on record: BHI agar dilution, 35-37° C., 20 to 24 hours. As to the method: (§1) Representative compounds of the present invention were assayed in vitro for antibacterial activity as follows: Petri dishes containing successive aqueous dilutions of the test compound mixed with 10 mL of sterilized Brain Heart Infusion (BHI) agar (Difco 0418-01-5) were prepared. Each plate was inoculated with 1:100 dilutions of a different microorganism, using a Steers replicator block. The inoculated plates were incubated at 35-37° C. for 20 to 24 hours. In addition, a control plate, using BHI agar containing no test compound, was prepared and incubated at the beginning and end of each test.
(§2) An additional plate containing a compound having known susceptibility patterns for the organisms being tested and belonging to the same antibiotic class as the test compound was also prepared and incubated as a further control, as well as to provide test-to-test comparability. Erythromycin A was used for this purpose.
(§3) After incubation, each plate was visually inspected. The minimum inhibitory concentration (MIC) was defined as the lowest concentration of drug yielding no growth, a slight haze, or sparsely isolated colonies on the inoculum spot as compared to the growth control.

Another test deals with S. aureus A-5278. In words: In vitro antibacterial activity, agar dilution MIC. The settings on record: BHI agar dilution, 35-37° C., 20 to 24 hours. The test is classed as cell-based, Staphylococcus aureus. As to the method:
as §1, §2, §3
A general note: In agar dilution, organisms are placed on agar that contains the substance at set levels.

≈ marks a conversion by molar mass, not a printed value.

One may read the MIC as the lowest concentration found to suppress growth. Turning to `COc1cccc(OC)c1C(=O)N[C@@H]1C(=O)N2[C@@H]1SC(C)(C)[C@@H]2C(=O)O` [Methicillin, reference compound], the MIC is more than 100 µg/mL in test [1] (Staphylococcus aureus, read-out: MIC S. aureus 1775) and more than 100 µg/mL in the test with S. aureus A-5278 (Staphylococcus aureus, A5278).

In the case of `CC[C@H]1OC(=O)[C@H](C)[C@@H](O[C@H]2C[C@@](C)(OC)[C@@H](O)[C@H](C)O2)[C@H](C)[C@@H](O[C@@H]2O[C@H](C)C[C@H](N(C)C)[C@H]2O)[C@](C)(O)C[C@@H](C)C(=O)[C@H](C)[C@@H](O)[C@]1(C)O` [Erythromycin, Erythromycin A, reference compound], the “MIC S. aureus 1775” value in test [1] was more than 100 µg/mL. For the same molecule, the “MIC S. aureus A-5278” value in the test with S. aureus A-5278 is more than 100 µg/mL.

With `CCON=C1C(C)CC(C)(OCC=Cc2cnc3ccccc3c2)C(OC2OC(C)CC(N(C)C)C2O)C(C)C(=O)C(C)C(=O)OC(CC)C(C)(O)C(O)C1C` (stereo not shown) [Ex. 1, 6-O-[3-(3-quinolyl)-2-propen-1-yl]-3-descladinose-3-oxo-9-[(O-ethyl)oxime] Erythromycin A], in test [1], the “MIC S. aureus 1775” value amounted to 12.5 µg/mL (≈ 15.9 µM). Further, the “MIC S. aureus A-5278” value in the test with S. aureus A-5278 stood at 25 µg/mL (≈ 31.9 µM).

With `CCC1OC(=O)C(C)C(OC2CC(C)(OC)C(O)C(C)O2)C(C)C(OC2OC(C)CC(N(C)C)C2O)C(C)(OCc2ccc(-c3ccccc3)cc2)CC(C)C(=NO)C(C)C(O)C1(C)O` (stereo not shown) [Ex. 13, 6-O-[(4-Phenyl)benzyl]-9-oxime Erythromycin A], the “MIC S. aureus 1775” value in test [1] was determined as 25 µg/mL (≈ 27.3 µM). Also, the “MIC S. aureus A-5278” value with S. aureus A-5278 amounted to 50 µg/mL (≈ 54.6 µM).

`CCC1OC(=O)C(C)C(OC2CC(C)(OC)C(O)C(C)O2)C(C)C(OC2OC(C)CC(N(C)C)C2O)C(C)(OCc2cccc(I)c2)CC(C)C(=NO)C(C)C(O)C1(C)O` (stereo not shown) [Ex. 12, 6-O-[(3-Iodo)benzyl]-9-oxime Erythromycin A]: the “MIC S. aureus 1775” value in test [1] turned out to be 25 µg/mL (≈ 25.9 µM). Moreover, the “MIC S. aureus A-5278” value with S. aureus A-5278 came to 25 µg/mL (≈ 25.9 µM).

For the origin of these results see US6946446B2, “Anti-infective agents useful against multidrug-resistant strains of bacteria” (Abbott Laboratories, priority 2000, dated 2005).
